Results taken from US12528791B2 (priority 2019, dated 2026).

Experiments:
TR beta-LBD = target: T1, TR beta-LBD (Homo sapiens, UniProt P10828); format: biochemical; settings: TR-FRET assay; THR beta over THR alpha, derived from T3-selectivity normalized data
T1 sequence (P10828 217-461 limits assumed): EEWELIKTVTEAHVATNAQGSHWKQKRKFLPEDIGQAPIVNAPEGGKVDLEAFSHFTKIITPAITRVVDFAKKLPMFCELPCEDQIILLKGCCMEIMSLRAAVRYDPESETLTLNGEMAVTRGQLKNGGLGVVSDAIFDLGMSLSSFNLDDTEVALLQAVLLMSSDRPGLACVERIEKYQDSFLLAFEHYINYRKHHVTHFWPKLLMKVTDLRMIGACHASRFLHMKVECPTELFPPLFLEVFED

THR-β/RXR-α = target: T2, THR-β/RXR-α (Homo sapiens, UniProt P10828); format: biochemical; settings: RXR heterodimer assay; compound activity normalized to T3 for THR-β/RXR-α and THR-α/RXR-α
T2 sequence (P10828 202-461 limits assumed): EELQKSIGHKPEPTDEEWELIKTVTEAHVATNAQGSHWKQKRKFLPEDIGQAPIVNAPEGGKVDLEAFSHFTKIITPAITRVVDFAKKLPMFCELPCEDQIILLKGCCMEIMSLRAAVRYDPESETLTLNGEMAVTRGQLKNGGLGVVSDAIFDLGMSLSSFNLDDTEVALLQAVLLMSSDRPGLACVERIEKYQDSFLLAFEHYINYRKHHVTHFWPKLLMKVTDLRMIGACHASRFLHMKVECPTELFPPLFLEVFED
T2 sequence (P19793 225-462 partner limits assumed): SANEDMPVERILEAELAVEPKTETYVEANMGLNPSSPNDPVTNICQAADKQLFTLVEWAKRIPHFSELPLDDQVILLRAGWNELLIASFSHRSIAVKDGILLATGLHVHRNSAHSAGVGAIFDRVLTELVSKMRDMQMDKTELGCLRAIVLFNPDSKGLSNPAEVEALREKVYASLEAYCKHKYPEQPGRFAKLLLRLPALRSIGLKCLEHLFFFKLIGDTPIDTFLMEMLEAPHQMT
T2 sequence (Q15596 679-703 partner limits assumed): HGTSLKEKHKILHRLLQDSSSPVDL

Compound: Cc1n[nH]c2ccc(Oc3c(Cl)cc(NC(=O)c4noc(=O)[nH]4)cc3Cl)cc12 [Example 4, N-(3,5-dichloro-4-((3-methyl-1H-indazol-5-yl)oxy)phenyl)-5-oxo-4,5-dihydro-1,2,4-oxadiazole-3-carboxamide]
- THRβ-Selectivity (TR beta-LBD): 18.8
- THRβ-Selectivity (THR-β/RXR-α): 6.6

Compound: Cn1cc2cc(Oc3c(Cl)cc(-n4nc(C#N)c(=O)[nH]c4=O)cc3Cl)ccc2n1 [Example 17, 2-(3,5-dichloro-4-((2-methyl-2H-indazol-5-yl)oxy)phenyl)-3,5-dioxo-2,3,4,5-tetrahydro-1,2,4-triazine-6-carbonitrile]
- THRβ-Selectivity (TR beta-LBD): 2.2
- THRβ-Selectivity (THR-β/RXR-α): 6.3

Compound: N#Cc1nn(-c2cc(Cl)c(Oc3ccc4nc(C5CC5)ccc4c3)c(Cl)c2)c(=O)[nH]c1=O [Example 26, 2-(3,5-dichloro-4-((2-cyclopropylquinolin-6-yl)oxy)phenyl)-3,5-dioxo-2,3,4,5-tetrahydro-1,2,4-triazine-6-carbonitrile]
- THRβ-Selectivity (THR-β/RXR-α): 3.3

Compound: Cn1cnc2cnc(Oc3c(Cl)cc(NC(=O)c4noc(=O)[nH]4)cc3Cl)cc21 [Example 11, N-(3,5-dichloro-4-((1-methyl-1H-imidazo[4,5-c]pyridin-6-yl)oxy)phenyl)-5-oxo-4,5-dihydro-1,2,4-oxadiazole-3-carboxamide]
- THRβ-Selectivity (TR beta-LBD): >30.5
- THRβ-Selectivity (THR-β/RXR-α): 10.4

Compound: O=C(Nc1cc(Cl)c(Oc2ccc3ncn(C4(C(F)(F)F)CC4)c3c2)c(Cl)c1)c1noc(=O)[nH]1 [Example 53, N-(3,5-dichloro-4-((1-(1-(trifluoromethyl)cyclopropyl)-1H-benzo[d]imidazol-6-yl)oxy)phenyl)-5-oxo-4,5-dihydro-1,2,4-oxadiazole-3-carboxamide]
- THRβ-Selectivity (THR-β/RXR-α): 14.7

Compound: Cc1n[nH]c2ncc(Oc3c(Cl)cc(-n4nc(C#N)c(=O)[nH]c4=O)cc3Cl)cc12 [Example 7, 2-(3,5-dichloro-4-((3-methyl-1H-pyrazolo[3,4-b]pyridin-5-yl)oxy)phenyl)-3,5-dioxo-2,3,4,5-tetrahydro-1,2,4-triazine-6-carbonitrile]
- THRβ-Selectivity (TR beta-LBD): 9.5
- THRβ-Selectivity (THR-β/RXR-α): 9.7

Compound: CC(C)n1cnc2ccc(Oc3c(Cl)cc(NC(=O)c4noc(=O)[nH]4)cc3Cl)cc21 [Example 20, N-(3,5-dichloro-4-((1-isopropyl-1H-benzo[d]imidazol-6-yl)oxy)phenyl)-5-oxo-4,5-dihydro-1,2,4-oxadiazole-3-carboxamide]
- THRβ-Selectivity (TR beta-LBD): 348.9
- THRβ-Selectivity (THR-β/RXR-α): 11.3

Compound: Cc1n[nH]c2ccc(Oc3c(Cl)cc(-n4nc(C#N)c(=O)[nH]c4=O)cc3Cl)cc12 [Example 3, 2-(3,5-dichloro-4-((3-methyl-1H-indazol-5-yl)oxy)phenyl)-3,5-dioxo-2,3,4,5-tetrahydro-1,2,4-triazine-6-carbonitrile]
- THRβ-Selectivity (TR beta-LBD): 32.0
- THRβ-Selectivity (THR-β/RXR-α): 8.5

Compound: O=C(Nc1cc(Cl)c(Oc2ccc3nc(C4CC4)ccc3c2)c(Cl)c1)c1noc(=O)[nH]1 [Example 24, N-(3,5-dichloro-4-((2-cyclopropylquinolin-6-yl)oxy)phenyl)-5-oxo-4,5-dihydro-1,2,4-oxadiazole-3-carboxamide]
- THRβ-Selectivity (TR beta-LBD): 8.1
- THRβ-Selectivity (THR-β/RXR-α): 4.8

Compound: Cn1cnc2ccc(Oc3c(Cl)cc(-n4nc(C#N)c(=O)[nH]c4=O)cc3Cl)cc21 [Example 19, 2-(3,5-dichloro-4-((1-methyl-1H-benzo[d]imidazol-6-yl)oxy)phenyl)-3,5-dioxo-2,3,4,5-tetrahydro-1,2,4-triazine-6-carbonitrile]
- THRβ-Selectivity (TR beta-LBD): 38.0
- THRβ-Selectivity (THR-β/RXR-α): 5.6

Compound: CC(C)(C)n1cnc2ccc(Oc3c(Cl)cc(-n4nc(C#N)c(=O)[nH]c4=O)cc3Cl)cc21 [Example 38, 2-(4-((1-(tert-butyl)-1H-benzo[d]imidazol-6-yl)oxy)-3,5-dichlorophenyl)-3,5-dioxo-2,3,4,5-tetrahydro-1,2,4-triazine-6-carbonitrile]
- THRβ-Selectivity (THR-β/RXR-α): 8.4

Compound: CC(C)n1c(=O)[nH]c2ccc(Oc3c(Cl)cc(NC(=O)c4noc(=O)[nH]4)cc3Cl)cc21 [Example 30, N-(3,5-dichloro-4-((3-isopropyl-2-oxo-2,3-dihydro-1H-benzo[d]imidazol-5-yl)oxy)phenyl)-5-oxo-4,5-dihydro-1,2,4-oxadiazole-3-carboxamide]
- THRβ-Selectivity (THR-β/RXR-α): 9.9

Compound: O=C(Nc1cc(Cl)c(Oc2ccc3ncn(C4CC4)c3c2)c(Cl)c1)c1noc(=O)[nH]1 [Example 22, N-(3,5-dichloro-4-((1-cyclopropyl-1H-benzo[d]imidazol-6-yl)oxy)phenyl)-5-oxo-4,5-dihydro-1,2,4-oxadiazole-3-carboxamide]
- THRβ-Selectivity (TR beta-LBD): >253.0
- THRβ-Selectivity (THR-β/RXR-α): 5.9

Compound: Cc1ccnc2ccc(Oc3c(Cl)cc(NC(=O)c4noc(=O)[nH]4)cc3Cl)cc12 [Example 25, N-(3,5-dichloro-4-((4-methylquinolin-6-yl)oxy)phenyl)-5-oxo-4,5-dihydro-1,2,4-oxadiazole-3-carboxamide]
- THRβ-Selectivity (TR beta-LBD): 1286.7
- THRβ-Selectivity (THR-β/RXR-α): 5.7

Compound: CCc1ccnc2ccc(Oc3c(Cl)cc(-n4nc(C#N)c(=O)[nH]c4=O)cc3Cl)cc12 [Example 35, 2-(3,5-dichloro-4-((4-ethylquinolin-6-yl)oxy)phenyl)-3,5-dioxo-2,3,4,5-tetrahydro-1,2,4-triazine-6-carbonitrile]
- THRβ-Selectivity (THR-β/RXR-α): 10.2

Compound: N#Cc1nn(-c2cc(Cl)c(Oc3ccc4nccc(C5CC5)c4c3)c(Cl)c2)c(=O)[nH]c1=O [Example 52, 2-(3,5-dichloro-4-((4-cyclopropylquinolin-6-yl)oxy)phenyl)-3,5-dioxo-2,3,4,5-tetrahydro-1,2,4-triazine-6-carbonitrile]
- THRβ-Selectivity (THR-β/RXR-α): 11.9

Compound: O=C(Nc1cc(Cl)c(Oc2ccc3nccc(C4CC4)c3c2)c(Cl)c1)c1noc(=O)[nH]1 [Example 51, N-(3,5-dichloro-4-((4-cyclopropylquinolin-6-yl)oxy)phenyl)-5-oxo-4,5-dihydro-1,2,4-oxadiazole-3-carboxamide]
- THRβ-Selectivity (THR-β/RXR-α): 8.1

Compound: CC1(n2cnc3ccc(Oc4c(Cl)cc(NC(=O)c5noc(=O)[nH]5)cc4Cl)cc32)CC1 [Example 43, N-(3,5-dichloro-4-((1-(1-methylcyclopropyl)-1H-benzo[d]imidazol-6-yl)oxy)phenyl)-5-oxo-4,5-dihydro-1,2,4-oxadiazole-3-carboxamide]
- THRβ-Selectivity (THR-β/RXR-α): 11.8

Compound: CC1(n2cnc3ccc(Oc4c(Cl)cc(-n5nc(C#N)c(=O)[nH]c5=O)cc4Cl)cc32)CC1 [Example 44, 2-(3,5-dichloro-4-((1-(1-methylcyclopropyl)-1H-benzo[d]imidazol-6-yl)oxy)phenyl)-3,5-dioxo-2,3,4,5-tetrahydro-1,2,4-triazine-6-carbonitrile]
- THRβ-Selectivity (THR-β/RXR-α): 10.1

Compound: CCc1ccnc2ccc(Oc3c(Cl)cc(NC(=O)c4noc(=O)[nH]4)cc3Cl)cc12 [Example 36, N-(3,5-dichloro-4-((4-ethylquinolin-6-yl)oxy)phenyl)-5-oxo-4,5-dihydro-1,2,4-oxadiazole-3-carboxamide]
- THRβ-Selectivity (THR-β/RXR-α): 7.1

Compound: O=C(Nc1cc(Cl)c(Oc2ccc3ncn(C4(C(F)F)CC4)c3c2)c(Cl)c1)c1noc(=O)[nH]1 [Example 55, N-(3,5-dichloro-4-((1-(1-(difluoromethyl)cyclopropyl)-1H-benzo[d]imidazol-6-yl)oxy)phenyl)-5-oxo-4,5-dihydro-1,2,4-oxadiazole-3-carboxamide]
- THRβ-Selectivity (THR-β/RXR-α): 14.3

Compound: O=C(Nc1cc(Cl)c(Oc2ccc3nc4n(c3c2)CCCO4)c(Cl)c1)c1noc(=O)[nH]1 [Example 39, N-(3,5-dichloro-4-((3,4-dihydro-2H-benzo[4,5]imidazo[2,1-b][1,3]oxazin-7-yl)oxy)phenyl)-5-oxo-4,5-dihydro-1,2,4-oxadiazole-3-carboxamide]
- THRβ-Selectivity (THR-β/RXR-α): 5.1

Compound: CC(C)(C)n1cnc2ccc(Oc3c(Cl)cc(NC(=O)c4noc(=O)[nH]4)cc3Cl)cc21 [Example 37, N-(4-((1-(tert-butyl)-1H-benzo[d]imidazol-6-yl)oxy)-3,5-dichlorophenyl)-5-oxo-4,5-dihydro-1,2,4-oxadiazole-3-carboxamide]
- THRβ-Selectivity (THR-β/RXR-α): 8.3

Compound: CCc1c[nH]c2ccc(Oc3c(Cl)cc(-n4nc(C#N)c(=O)[nH]c4=O)cc3Cl)cc12 [Example 59, 2-(3,5-dichloro-4-((3-ethyl-1H-indol-5-yl)oxy)phenyl)-3,5-dioxo-2,3,4,5-tetrahydro-1,2,4-triazine-6-carbonitrile]
- THRβ-Selectivity (THR-β/RXR-α): 8.4

Compound: N#Cc1nn(-c2cc(Cl)c(Oc3ccc4ncn(C5(C(F)F)CC5)c4c3)c(Cl)c2)c(=O)[nH]c1=O [Example 56, 2-(3,5-dichloro-4-((1-(1-(difluoromethyl)cyclopropyl)-1H-benzo[d]imidazol-6-yl)oxy)phenyl)-3,5-dioxo-2,3,4,5-tetrahydro-1,2,4-triazine-6-carbonitrile]
- THRβ-Selectivity (THR-β/RXR-α): 9.0

Compound: N#Cc1nn(-c2cc(Cl)c(Oc3ccc4nc5n(c4c3)CCCO5)c(Cl)c2)c(=O)[nH]c1=O [Example 40, 2-(3,5-dichloro-4-((3,4-dihydro-2H-benzo[4,5]imidazo[2,1-b][1,3]oxazin-7-yl)oxy)phenyl)-3,5-dioxo-2,3,4,5-tetrahydro-1,2,4-triazine-6-carbonitrile]
- THRβ-Selectivity (THR-β/RXR-α): 11.6
